In patent US8889881B2, “Compound having skin-whitening, anti-oxidizing and PPAR activities and medical use therefor” (Pusan National University Industry —University Cooperation …, priority 2011, dated 2014):
“Also recorded” adds a separate entry of the source.

Assays:
PPAR alpha-LBD = biological target: T1, PPAR alpha-LBD (Homo sapiens, UniProt Q07869); assay: PPAR assay, PPARα; conditions: for PPARα activation (competitive activation rate), compared with fenofibrate: sample final concentration 100 μM, positive control fenofibrate, FIGS. 5 and 6; for simultaneous activation of PPARα and PPARγ: summary of the PPARα and PPARγ assays, sample 100 μM
T1 sequence (Q07869 239-466 limits assumed): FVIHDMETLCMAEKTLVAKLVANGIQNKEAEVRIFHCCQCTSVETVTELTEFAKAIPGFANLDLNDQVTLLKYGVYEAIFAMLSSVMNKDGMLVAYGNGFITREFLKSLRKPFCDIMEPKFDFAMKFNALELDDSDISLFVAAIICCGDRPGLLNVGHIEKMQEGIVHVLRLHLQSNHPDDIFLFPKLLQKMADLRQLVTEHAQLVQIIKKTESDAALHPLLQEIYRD

PPAR gamma-LBD = biological target: T2, PPAR gamma-LBD (Homo sapiens, UniProt P37231); assay: PPAR assay, PPARγ; type: binding; conditions: sample final concentration 100 μM; positive control rosiglitazone; FIGS. 7 and 8
T2 sequence (P37231 238-503 limits assumed): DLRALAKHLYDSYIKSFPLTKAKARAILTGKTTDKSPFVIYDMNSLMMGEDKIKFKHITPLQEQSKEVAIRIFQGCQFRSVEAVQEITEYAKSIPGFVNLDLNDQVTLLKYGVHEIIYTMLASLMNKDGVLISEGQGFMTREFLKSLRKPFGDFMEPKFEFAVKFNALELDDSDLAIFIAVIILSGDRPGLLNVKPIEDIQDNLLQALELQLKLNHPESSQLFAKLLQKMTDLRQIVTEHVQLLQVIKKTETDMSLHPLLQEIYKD

| Structure (SMILES) | melting point [°C] | simultaneous activation of PPARα and PPARγ (PPAR alpha-LBD) | PPARα activation (competitive activation rate), compared with fenofibrate (PPAR alpha-LBD) | PPARγ activation (competitive activation rate), compared with rosiglitazone (PPAR gamma-LBD) |
| --- | --- | --- | --- | --- |
| COc1cc(-c2nc3ccccc3s2)cc(OC)c1O [Compound 25, 4-(benzo[d]thiazol-2-yl)-2,6-dimethoxyphenol] | 153.5 to 156.1 | simultaneously activates PPARα and PPARγ | very excellent PPARα activation agent compared to fenofibrate | very excellent PPARγ activation agent compared to rosiglitazone |
| COc1ccc(-c2nc3cc(C(F)(F)F)ccc3s2)cc1 [Compound 34, 2-(4-methoxyphenyl)-5-(trifluoromethyl)benzo[d]thiazole] | 128.8 to 130.1 |  |  | very excellent PPARγ activation agent compared to rosiglitazone |
| COc1cc(-c2nc3cc(C(F)(F)F)ccc3s2)cc(OC)c1O [Compound 40, 2,6-dimethoxy-4-(5-(trifluoromethyl)benzo[d]thiazol-2-yl)phenol] | 220.6 to 222.6 | simultaneously activates PPARα and PPARγ | very excellent PPARα activation agent compared to fenofibrate | very excellent PPARγ activation agent compared to rosiglitazone |
| O=C(O)c1ccc2[nH]c(-c3ccc(O)cc3O)nc2c1 [Compound 59, 2-(2,4-dihydroxyphenyl)-1H-benzo[d]imidazole-5-carboxylic acid] | > 300 | simultaneously activates PPARα and PPARγ | very excellent PPARα activation agent compared to fenofibrate | very excellent PPARγ activation agent compared to rosiglitazone |
| CCOc1cc(-c2nc3cc(C(F)(F)F)ccc3s2)ccc1O [Compound 32, 2-ethoxy-4-(5-(trifluoromethyl)benzo[d]thiazol-2-yl)phenol] | 117 to 117.8 | simultaneously activates PPARα and PPARγ | very excellent PPARα activation agent compared to fenofibrate | very excellent PPARγ activation agent compared to rosiglitazone |
| COc1cc(-c2nc3cc(C(F)(F)F)ccc3s2)ccc1O [Compound 31, 2-methoxy-4-(5-(trifluoromethyl)benzo[d]thiazol-2-yl)phenol] | 155.7 to 159.9 | simultaneously activates PPARα and PPARγ | very excellent PPARα activation agent compared to fenofibrate | very excellent PPARγ activation agent compared to rosiglitazone |
| Oc1ccc(-c2nc3cc(Cl)ccc3s2)cc1Br [Compound 95, 2-bromo-4-(5-chlorobenzo[d]thiazol-2-yl)phenol] | 226 to 228.1 | simultaneously activates PPARα and PPARγ | very excellent PPARα activation agent compared to fenofibrate | very excellent PPARγ activation agent compared to rosiglitazone |
| CCOc1cc(-c2nc3cc(Cl)ccc3s2)ccc1O [Compound 86, 4-(5-chlorobenzo[d]thiazol-2-yl)-2-ethoxyphenol] | 102.1 to 103.4 | simultaneously activates PPARα and PPARγ | very excellent PPARα activation agent compared to fenofibrate | very excellent PPARγ activation agent compared to rosiglitazone |
| COc1ccc(-c2nc3cc(C(=O)O)ccc3[nH]2)cc1OC [Compound 64, 2-(3,4-dimethoxyphenyl)-1H-benzo[d]imidazole-5-carboxylic acid] |  | simultaneously activates PPARα and PPARγ | very excellent PPARα activation agent compared to fenofibrate | very excellent PPARγ activation agent compared to rosiglitazone |
| COc1ccc(-c2nc3cc(C(=O)O)ccc3[nH]2)c(OC)c1 [Compound 65, 2-(2,4-dimethoxyphenyl)-1H-benzo[d]imidazole-5-carboxylic acid] |  | simultaneously activates PPARα and PPARγ | very excellent PPARα activation agent compared to fenofibrate | very excellent PPARγ activation agent compared to rosiglitazone |
| O=C(O)c1ccc2[nH]c(-c3cc(Br)c(O)c(Br)c3)nc2c1 [Compound 70, 2-(3,5-dibromo-4-hydroxyphenyl)-1H-benzo[d]imidazole-5-carboxylic acid] |  | simultaneously activates PPARα and PPARγ | very excellent PPARα activation agent compared to fenofibrate | very excellent PPARγ activation agent compared to rosiglitazone |

The next lines start with results.

| melting point [°C] | simultaneous activation of PPARα and PPARγ (PPAR alpha-LBD) | Structure (SMILES) | PPARα activation (competitive activation rate), compared with fenofibrate (PPAR alpha-LBD) | PPARγ activation (competitive activation rate), compared with rosiglitazone (PPAR gamma-LBD) |
| --- | --- | --- | --- | --- |
| 187.2 to 188.9 | simultaneously activates PPARα and PPARγ | Oc1ccc(-c2nc3cc(C(F)(F)F)ccc3s2)cc1 [Compound 28, 4-(5-(trifluoromethyl)benzo[d]thiazol-2-yl)phenol] | very excellent PPARα activation agent compared to fenofibrate | very excellent PPARγ activation agent compared to rosiglitazone |
| 264.7 to 265.4 | simultaneously activates PPARα and PPARγ | COc1ccc(-c2nc3cc(C(=O)O)ccc3[nH]2)cc1 [Compound 63, 2-(4-methoxyphenyl)-1H-benzo[d]imidazole-5-carboxylic acid] | very excellent PPARα activation agent compared to fenofibrate | very excellent PPARγ activation agent compared to rosiglitazone |
|  | simultaneously activates PPARα and PPARγ | Oc1ccc(-c2nc3ccccc3s2)cc1Br [Compound 26, 4-(benzo[d]thiazol-2-yl)-2-bromophenol] | the most excellent PPARα activation agent; also recorded: very excellent PPARα activation agent compared to fenofibrate | the most excellent PPARγ activation agent; also recorded: very excellent PPARγ activation agent compared to rosiglitazone |
|  | simultaneously activates PPARα and PPARγ | O=C(O)c1ccc2[nH]c(-c3ccccc3O)nc2c1 [Compound 66, 2-(2-hydroxyphenyl)-1H-benzo[d]imidazole-5-carboxylic acid] | very excellent PPARα activation agent compared to fenofibrate | very excellent PPARγ activation agent compared to rosiglitazone |
|  | simultaneously activates PPARα and PPARγ | COc1ccc(-c2nc3ccccc3[nH]2)c(OC)c1 [Compound 52, 2-(2,4-dimethoxyphenyl)-1H-benzo[d]imidazole] | very excellent PPARα activation agent compared to fenofibrate | very excellent PPARγ activation agent compared to rosiglitazone |
|  | simultaneously activates PPARα and PPARγ | CCOc1cc(-c2nc3ccccc3[nH]2)ccc1O [Compound 47, 4-(1H-benzo[d]imidazol-2-yl)-2-ethoxyphenol] | very excellent PPARα activation agent compared to fenofibrate | very excellent PPARγ activation agent compared to rosiglitazone |
|  | simultaneously activates PPARα and PPARγ | O=C(O)c1ccc2[nH]c(-c3ccc(OCc4ccccc4)cc3)nc2c1 [Compound 113, 2-(4-(benzyloxy)phenyl)-1H-benzo[d]imidazole-5-carboxylic acid] | very excellent PPARα activation agent compared to fenofibrate | very excellent PPARγ activation agent compared to rosiglitazone |
|  | simultaneously activates PPARα and PPARγ | Oc1ccc(-c2nc3ccccc3[nH]2)cc1 [Compound 43, 4-(1H-benzo[d]imidazol-2-yl)phenol] | very excellent PPARα activation agent compared to fenofibrate | very excellent PPARγ activation agent compared to rosiglitazone |
|  | simultaneously activates PPARα and PPARγ | O=C(O)c1ccc2[nH]c(-c3ccc(O)c(Br)c3)nc2c1 [Compound 69, 2-(3-bromo-4-hydroxyphenyl)-1H-benzo[d]imidazole-5-carboxylic acid] | very excellent PPARα activation agent compared to fenofibrate | very excellent PPARγ activation agent compared to rosiglitazone |
